Reference: PMC4754331, “Programming of metabolic effects in C57BL/6JxFVB mice by in utero and lactational exposure to perfluorooctanoic acid” (Archives of Toxicology, 2015)
Values joined by “and” are separate entries in the source; they are usually repeats but may differ in a detail not shown here. Equal entries are not always repeated.

What was measured:
F0 C57BL/6J mice = experiment: Perinatal dietary exposure: general toxicity and reproduction parameters (litter size, sex ratio, survival); format: in vivo
Experimental: PFOA was obtained as sodium perfluoro-n-octanoate (PFOA-Na; CAS No. 335-95-5, purity >99 %) and kindly provided by Wellington Laboratories Inc., Ontario, Canada. PFOA-Na was dissolved in acetone and mixed with the diet (NIH-07, Research Diet Services, Wijk bij Duurstede, The Netherlands). Thereafter, acetone was allowed to evaporate, and this master mixture was serially diluted with a factor 3–3.3 by adding NIH-07, and afterward, the diet was pelleted. In this way, seven diet groups and a control NIH-07 (blank acetone was added) were obtained, aiming at concentrations of 0, 0.017, 0.056, 0.17, 0.56, 1.7, 5.6 and 17 mg/kg PFOA in feed, which corresponded to 0, 3, 10, 30, 100, 300, 1000 and 3000 µg/kg bw based on an average food consumption of 4.5 g per mouse (average body weight of 25 g) per day. PFOA concentrations in test diets were confirmed by isotope dilution liquid chromatography mass spectrometry after extraction with methanol (8402, JT Baker, Deventer the Netherlands) and a cleanup with carbon solid phase extraction (ENVI Carb, 57210-U, Supelco, Zwijndrecht, the Netherlands). Actual PFOA concentrations in the food were 15–30 % lower than the nominal values. The non-purified soy-based NIH-07 was chosen because it was originally designed to optimize gestation, lactation and growth of rodents, and avoiding natural phytoestrogens in the diet may have confounding effects (Ruhlen et al. [2008]). Estrogenic and anti-estrogenic activity for this diet was previously analyzed to be low and absent, respectively (van Esterik et al. [2014]).
Nulliparous female C57BL/6J mice (Charles River, Sulzfeld, Germany) were mated with male FVB mice (GPL, Bilthoven, The Netherlands) to produce hybrid offspring, for which comprehensive background information of phenotype and development is available (Dollé et al. [2011]). Mice were maintained under specific pathogen-free conditions with a target ambient temperature of 21 °C, humidity of 60 % and with a 12/12 h light/dark cycle. F0 males were single-housed in standard Macrolon type II cages and were fed standard laboratory chow (CRM, Tecnilab-BMI, Someren, The Netherlands). To avoid interference from environmental bisphenol A (van Esterik et al. [2014]), F0 females and their pups during lactation were housed in polysulfone cages (Tecnilab-BMI, Someren, The Netherlands), and drinking water was supplied in glass bottles with rubber stoppers. Cages had spruce/fir wood bedding (Lignocel S 8-15; Tecnilab-BMI, Someren, The Netherlands) and aspen wood shavings (Lignocel 9 S) for cage enrichment. Both feed and water were supplied ad libitum.
After an acclimatization period of 1 week, female F0 mice were fed experimental diets explained above starting 2 weeks before mating and continued during mating (1 week), gestation (3 weeks) and lactation (3 weeks). Each dose group had six F0 females, which were mated three by three with two F0 males for each dose group. […] For every dose group, on average 9 mice per sex (range 6–10) were included for follow-up through juvenile and adult stages, selecting pups proportionally from available litters. F1 males were single-housed, and F1 females were housed in pairs from the same litter in standard Macrolon type I cages. Body weight was measured at postnatal day (PND) 4, 7, 14 and 21 and weekly from 5 weeks of age continuing until the end of the study. Food consumption could not be recorded reliably due to high spillage.

C57BL/6JxFVB hybrid mice [1] = experiment: Histopathology of liver; format: in vivo; settings: for Liver nuclear dysmorphology: count of individuals with Grade 0 / Liver nuclear dysmorphology: count of individuals with Grades 1, 2: p = 0.06 vs control
C57BL/6JxFVB hybrid mice [2] = experiment: Histopathology of brown adipose tissue; format: in vivo
Experimental: (§1) Some measurements included only control and one or two dose groups and could therefore not be analyzed as dose–responses. GTT was therefore evaluated by repeated-measures or nested (to account for litter covariance) two-way ANOVAs (Graphpad Prism 5.0, R) to detect differences at the different time points and between the areas under the curve (AUC). Activity measurement, ucp1 expression, WAT adipocyte size and the proxy for cell number were also tested with a nested ANOVA (R). Differences in distribution of BAT histopathology scores between experimental groups were tested for statistical significance in a two-tailed Fisher’s exact test.

C57BL/6JxFVB hybrid mice [3] = experiment: Glucose tolerance test; format: in vivo; settings: males and females; 300 µg/kg vs control; 19 weeks; data not shown
Experimental: One week later, at 20 weeks of age, an insulin tolerance test (ITT) was performed in the same animals as used for the GTT. Mice were not fasted to avoid low glucose baseline levels which, after an insulin injection, could lead to hypoglycemia. At the start of the experiment, a baseline blood sample was taken (0 min). […] The experiment was performed over two morning sessions, with 1.75 h between the first and last tested animal in each session, and animals were treated in a random order. At the age of 22–25 weeks, control and 300 µg/kg bw/d animals were used for a spontaneous locomotor activity test. After an acclimatization period of minimal 6 h, activity of the mice was continuously registered on four parallel platforms for 36 h (males) or 60 h (females), starting at the beginning of the dark phase (6.30 PM) of the first day.
as §1, with “Differences in distribution of BAT histopathology scores between experimental groups were tested for statistical significance in a two-tailed Fisher’s exact test.” left out

C57BL/6JxFVB hybrid mice [4] = experiment: Serum lipids and glucose; settings: for Emax: Mus musculus
C57BL/6JxFVB hybrid mice [5] = experiment: Body size, organ and fat pad weights at necropsy; settings: for Emax: Mus musculus
[6] = males, 300 and 3000 µg PFOA/kg body weight/day combined, p = 0.07 vs control
[7] = females, 300 and 3000 combined, p = 0.097 vs control
[8] = males, 300 and 3000 combined, p < 0.05 vs control

With `O=C(O)C(F)(F)C(F)(F)C(F)(F)C(F)(F)C(F)(F)C(F)(F)C(F)(F)F` [PFOA, Perfluorooctanoic acid] the “Sex ratio or survival of the F1 generation” value (F0 C57BL/6J mice; 3–3000 µg/kg bw/day) was “No effects”, the “Litter size: BMD (CED)” value (F0 C57BL/6J mice; F0 dams exposed via diet 2 weeks before mating until PND21) was 445 µg/kg bw/d and the “Litter size: CEDL” value (F0 C57BL/6J mice; Fig. 1, unit from legend) was 299.1 µg/kg body weight/day. The “Litter size: CEDU” value (F0 C57BL/6J mice; Fig. 1, unit from legend) was 873 µg/kg body weight/day, the “General toxicity in dams (survival, body weight, weight gain during gestation)” value (F0 C57BL/6J mice; dietary exposure 3–3000 µg/kg bw/day) was “no effect” and the “Liver eosinophilic alteration: count of individuals with Grades 0, 1” value (C57BL/6JxFVB hybrid mice [1]; females, 300 and 3000 combined) was 11. For the same compound, the “Liver eosinophilic alteration: count of individuals with Grades 2, 3” value (C57BL/6JxFVB hybrid mice [1]; females, 300 and 3000 combined) was 8, the “Liver fatty change: count of individuals with Grade 0” value (C57BL/6JxFVB hybrid mice [1]; females, 300 and 3000 combined) was 17 and the “Liver fatty change: count of individuals with Grades 1, 2, 3” value (C57BL/6JxFVB hybrid mice [1]; females, 300 and 3000 combined) was 2. For the same compound, the “Liver nuclear dysmorphology: count of individuals with Grade 0” value (C57BL/6JxFVB hybrid mice [1]; females, 300 and 3000 combined) was 12, the “Liver nuclear dysmorphology: count of individuals with Grades 1, 2” value (C57BL/6JxFVB hybrid mice [1]; females, 300 and 3000 combined) was 7 and the “Liver eosinophilic alteration: count of individuals with Grade 0” value (C57BL/6JxFVB hybrid mice [1]; [6]) was 14. The “Liver eosinophilic alteration: count of individuals with Grades 1, 2” value (C57BL/6JxFVB hybrid mice [1]; [6]) was 6, the “Liver fatty change: count of individuals with Grade 0” value (C57BL/6JxFVB hybrid mice [1]; males, 300 and 3000 combined) was 16 and the “Liver fatty change: count of individuals with Grades 1, 2, 3, 4” value (C57BL/6JxFVB hybrid mice [1]; males, 300 and 3000 combined) was 4. The “Liver nuclear dysmorphology: count of individuals with Grade 0” value (C57BL/6JxFVB hybrid mice [1]; males, 300 and 3000 combined) was 13, the “Liver nuclear dysmorphology: count of individuals with Grades 1, 2” value (C57BL/6JxFVB hybrid mice [1]; males, 300 and 3000 combined) was 7 and the “Brown adipose tissue (interscapular fat pad) histopathology” value (C57BL/6JxFVB hybrid mice [2]; females vs control females, p = 0.097) was “trend for lipid depletion”. The “Brown adipose tissue lipid accumulation: count of individuals with Grade 3” value (C57BL/6JxFVB hybrid mice [2]; [7]) was 4, the “Brown adipose tissue lipid accumulation: count of individuals with Grades 1, 2” value (C57BL/6JxFVB hybrid mice [2]; [7]) was 14 and the “Brown adipose tissue (interscapular fat pad) histopathology” value (C57BL/6JxFVB hybrid mice [2]; males vs control males) was “significant lipid accumulation”. The “Brown adipose tissue lipid accumulation: count of individuals with Grades 1, 2, 3” value (C57BL/6JxFVB hybrid mice [2]; [8]) was 4, the “Brown adipose tissue lipid accumulation: count of individuals with Grades 4, 5, 6” value (C57BL/6JxFVB hybrid mice [2]; [8]) was 13 and the “Glucose homeostasis: GTT” value (C57BL/6JxFVB hybrid mice [3]) was “did not show an effect”. The “Serum triglycerides: BMDU/BMDL” value (C57BL/6JxFVB hybrid mice [4]; F1 females) was 100, the “Serum cholesterol: BMDL” value (C57BL/6JxFVB hybrid mice [4]; F1 females, CES 5 %) was 402 µg/kg bw/d and the “Serum cholesterol: BMDU” value (C57BL/6JxFVB hybrid mice [4]; F1 females, CES 5 %) was 1284 µg/kg bw/d. For the same compound, the “Serum triglycerides: BMDL” value (C57BL/6JxFVB hybrid mice [4]; F1 females, CES 5 %) was 6.2 µg/kg bw/d, the “Serum triglycerides: BMDU” value (C57BL/6JxFVB hybrid mice [4]; F1 females, CES 5 %) was 623 µg/kg bw/d and the Emax (C57BL/6JxFVB hybrid mice [4]; read-out: Serum cholesterol: max effect size) was -20%. For the same compound, the Emax (C57BL/6JxFVB hybrid mice [4]; read-out: Serum triglycerides: max effect size) was -27%, the “Other relevant effects of PFOA” value (C57BL/6JxFVB hybrid mice [5]; C57BL/6JxFVB, 3-10-30-100-300-1000-3000 µg/kg bw/d, diet, 2w pre-mating-PND21, this study) was “F: ↓ fat pad weights; ↓ serum cholesterol; ↓ serum triglycerides” and the “Perirenal fat pad weight: BMDL corrected for measured levels of PFOA in the feed (15–30 % lower than nominal)” value (C57BL/6JxFVB hybrid mice [5]; F1 females) was 46–55 µg/kg bw/d and 46 µg/kg bw/d. For the same compound, the “Femur length: BMDL” value (C57BL/6JxFVB hybrid mice [5]; F1 females, CES 5 %) was 2423 µg/kg bw/d, the “Femur length: BMDU” value (C57BL/6JxFVB hybrid mice [5]; F1 females, CES 5 %) was 6999 µg/kg bw/d and the “Femur weight: BMDL” value (C57BL/6JxFVB hybrid mice [5]; F1 females, CES 5 %) was 989 µg/kg bw/d. The “Femur weight: BMDU” value (C57BL/6JxFVB hybrid mice [5]; F1 females, CES 5 %) was 5060 µg/kg bw/d, the “Perirenal fat pad weight: BMDL” value (C57BL/6JxFVB hybrid mice [5]; F1 females, CES 5 %) was 65 µg/kg bw/d and the “Perirenal fat pad weight: BMDU” value (C57BL/6JxFVB hybrid mice [5]; F1 females, CES 5 %) was 362 µg/kg bw/d. The “Quadriceps femoris muscle weight: BMDL” value (C57BL/6JxFVB hybrid mice [5]; F1 females, CES 5 %) was 432 µg/kg bw/d, the “Quadriceps femoris muscle weight: BMDU” value (C57BL/6JxFVB hybrid mice [5]; F1 females, CES 5 %) was 1356 µg/kg bw/d and the Emax (C57BL/6JxFVB hybrid mice [5]; read-out: Femur length: max effect size, F1 females) was -4.2%. It also gave an Emax (C57BL/6JxFVB hybrid mice [5]; read-out: Femur weight: max effect size, F1 females) of -8.6%, an Emax (C57BL/6JxFVB hybrid mice [5]; read-out: Liver weight: max effect size, F1 males) of 16% and an Emax (C57BL/6JxFVB hybrid mice [5]; read-out: Perigonadal fat pad weight: max effect size, F1 females) of -56%. The Emax (C57BL/6JxFVB hybrid mice [5]; read-out: Perirenal fat pad weight: max effect size, F1 females) was -57%, the Emax (C57BL/6JxFVB hybrid mice [5]; read-out: Quadriceps femoris muscle weight: max effect size, F1 females) was -19% and the Emax (C57BL/6JxFVB hybrid mice [5]; read-out: Tibia length: max effect size, F1 females, exponential modeling only) was -5%. For the same compound, the Emax (C57BL/6JxFVB hybrid mice [5]; read-out: Tibia length: max effect size, F1 males) was -1.6% and the “Developmental BMDL of 46 µg/kg bw/d: times lower than the BMDL10 of 300 µg/kg bw/d used for the TDI” value (C57BL/6JxFVB hybrid mice [5]; mouse, in vivo) was 6.5 times.
